{
  "source": "patent US10889553B2",
  "about": "“Asymmetric triazole benzamide derivatives and the compositions and methods of treatment regarding the same” (NysnoBio Ireland DAC, priority 2017, dated 2021)",
  "key": {"5 major CYP enzymes": {"test_system": "5 major CYP enzymes", "experiment": "CYP inhibition assay (all 5 enzymes)", "assay_type": "in vitro ADME", "settings": "30 μM, in words"}, "CDK 4/6 or other kinases": {"test_system": "CDK 4/6 or other kinases", "experiment": "Kinase panel assay (whole panel)", "assay_type": "biochemical", "settings": "10 μM, in words", "text": "Compound 42 was also screened in a kinase panel assay."}, "[1]": {"experiment": "Oral bioavailability (PO) and pharmacokinetics assay", "assay_type": "in vivo, mice", "settings": "mouse", "procedure": "The pharmacokinetics and oral bioavailability of various compounds was evaluated following IV or PO administration to fasted male Sprague-Dawley […] (N=3/route/dose). […] For IV dosing, each compound was formulated in 10% DMA/15% Solutol/75% HPβ-CD (20%) as a 1 mg/mL solution for IV (3 mg/kg), for IP (5 mg/kg) and for PO (10 mg/kg) administrations.\nBlood samples (0.250 mL) were collected into EDTA tubes then processed to generate plasma samples. Blood samples were collected at pre-dose, 0.083, 0.25, 0.5, 1, 2, 4, 8 and 24 hours post-dose administration. Plasma concentrations of each compound were determined using LC-MS/MS with a lower limit of quantitation of 1.0 ng/mL. The pharmacokinetic parameters were determined by non-compartmental methods using WinNonlin.\nThe pharmacokinetic parameters of each compound were determined by non-compartmental analysis (Model 201 for IV administration and Model 200 for PO administration) using WinNonlin Version 6.4 (Pharsight, Mountain View, Calif.). The area under the curve from the time of dosing to the last measurable concentration, AUC(0-t), was calculated by the linear trapezoidal rule. The area under the concentration-time curve extrapolated to infinity, AUC(0-∞), was calculated as follows: AUC(0-∞)=AUC(0-t)+Clast/k\nWhere Clast is the last measurable concentration and k is the first order rate constant associated with the terminal elimination phase, estimated by linear regression of log concentration versus time. The half-life (T1/2) of the terminal elimination phase was estimated based on the following equation: T1/2=0.693/k\nK was determined based on at least three timepoints with R^2≥0.9. Additional parameters were calculated as follows: CL=Dose/AUC(0-∞)\nWhere CL is the clearance of the compound of the disclosure in L/hr/kg, Dose is the administered dose in mg/kg. Mean residence time (MRT) was calculated as follows: MRT=AUMC(0-∞)/AUC(0-∞)\nWhere area under the first moment curve extrapolated to infinity (AUMC0-∞)) was calculated as follows: AUMC(0-∞)=AUMClast+tlast*[…]+Clast/k^2\nThe steady state volume of distribution (Vss) was calculated as follows: Vss=CL×MRT.\nThe oral bioavailability based on AUC(0-t) was calculated as follows: F(%)=AUCPO/AUCIV×DoseIV/DosePO×100. For IV administration, the initial concentration, Co is reported and is an extrapolated value. For PO administration, the maximum concentration, Cmax is report and is an observed value."}, "[2]": {"test_system": "subcutaneous HCT-116 (colon cancer) xenograft", "experiment": "In vivo cancer xenograft assay", "settings": "5 mg/kg daily IP, up to 26 days, HCT-116 xenograft in nude mice (FIG. 1)", "procedure": "Each mouse was inoculated subcutaneously at the flank region with either HCT-116 cells (1.0×106) in 0.1 ml of 1×PBS mixed with Matrigel (1:1) for tumor development and xenotransplantation.\nThe vehicle with or without drug is administered to the mouse by intraperitoneal injection. The formulation with respective drug is as follows: • 10% —DMA: N,N-Dimethyl acetamide • 15% —Solutol HS 15: Macrogol 15 Hydroxy Stearate, Polyethylene glycol-15-hydroxystrerate; and 75%-20% aqueous HP-β-CD: Hydroxypropyl-beta-cyclodextrin\nBefore grouping and treatment, all animals were weighed and the tumor volumes were confirmed (approx. 120-150 mm^3) using electronic caliper. Since the tumor volume can affect the effectiveness of any given treatment, mice were assigned into groups using randomized block design as following: First, the experimental animals were divided into homogeneous blocks based on their tumor volume. […]\nAfter tumor cells were inoculated, the animals were checked daily for morbidity and mortality. […] Death and observed clinical signs were recorded. Tumor volumes were measured every three days in two dimensions using an electronic caliper, and the volume data were expressed in mm^3 using the formula: V=0.5 a×b2 where a and b are the long and short diameters of the tumor, respectively. Tumor volume average is then recorded for each day for groups 1-4 until day 26."}, "[3]": {"settings": "male, Sprague-Dawley, plasma, IP (5 mg/kg)"}, "[4]": {"settings": "male, Sprague-Dawley, plasma, IV bolus (3 mg/kg)"}, "[5]": {"settings": "male, Sprague-Dawley, plasma, PO (10 mg/kg)"}},
  "note": "Read-outs that look alike come from different tables or passages of the source.",
  "data": [
    {"smiles": "Cc1ccccc1C(=O)Nc1nc(NC(=O)c2ccccc2C)n(-c2ccc(OC(F)(F)F)cc2)n1", "note": "[Compound 42, N,N′-(1-(4-(trifluoromethoxy)phenyl)-1H-1,2,4-triazole-3,5-diyl)bis(2-methylbenzamide)]", "values": [
      {"measurement": "CYP inhibition activity for the 5 major CYP enzymes", "setting": "5 major CYP enzymes", "result": "no significant CYP inhibition activity"},
      {"measurement": "inhibition of CDK 4/6 or other kinases", "setting": "CDK 4/6 or other kinases", "result": "does not inhibit"},
      {"measurement": "bioavailability", "setting": "[1]; male, Sprague-Dawley, plasma, intraperitoneal, 5 mg/kg, IP (5 mg/kg) vs IV, read-out: F (%)", "result": 50.3, "unit": "%"},
      {"measurement": "half-life", "setting": "[1]; male, Sprague-Dawley, plasma, ip, 5 mg/kg, IP (5 mg/kg)", "result": 2820, "unit": "min"},
      {"measurement": "half-life", "setting": "[1]; male, Sprague-Dawley, plasma, iv, 3 mg/kg", "result": 960, "unit": "min"},
      {"measurement": "half-life", "setting": "[1]; male, Sprague-Dawley, plasma, iv, 3 mg/kg, IV bolus (3 mg/kg)", "result": 984, "unit": "min"},
      {"measurement": "Vd", "setting": "[1]; male, Sprague-Dawley, plasma, iv, 3 mg/kg, IV bolus (3 mg/kg), read-out: Vss", "result": 1.3, "unit": "L/kg"},
      {"measurement": "bioavailability", "setting": "[1]; male, Sprague-Dawley, plasma, oral, 10 mg/kg, PO (10 mg/kg) vs IV, read-out: F (%) oral bioavailability", "result": 21, "unit": "%"},
      {"measurement": "half-life", "setting": "[1]; male, Sprague-Dawley, plasma, po, 10 mg/kg, PO (10 mg/kg)", "result": 1500, "unit": "min"},
      {"measurement": "AUC(0-t)", "setting": "[1]; [3]", "result": 21500, "unit": "ng·h/mL"},
      {"measurement": "Cmax", "setting": "[1]; [3]", "result": 1400, "unit": "ng/mL"},
      {"measurement": "Tmax", "setting": "[1]; [3]", "result": 1.33, "unit": "h"},
      {"measurement": "AUC(0-t)", "setting": "[1]; [4]", "result": 25700, "unit": "ng·h/mL"},
      {"measurement": "clearance", "setting": "[1]; [4]", "result": 1.49, "unit": "mL/min/kg"},
      {"measurement": "C0", "setting": "[1]; male, Sprague-Dawley, plasma, IV bolus (3 mg/kg), extrapolated value", "result": 40500, "unit": "ng/mL"},
      {"measurement": "AUC(0-t)", "setting": "[1]; [5]", "result": 18400, "unit": "ng·h/mL"},
      {"measurement": "Cmax", "setting": "[1]; [5]", "result": 1060, "unit": "ng/mL"},
      {"measurement": "Tmax", "setting": "[1]; [5]", "result": 3.67, "unit": "h"},
      {"measurement": "Vss", "setting": "[1]; IV bolus (3 mg/kg), 3 mg/kg", "result": 1.32, "unit": "L/kg"},
      {"measurement": "IV clearance", "setting": "[1]; IV, in words", "result": "reasonable"},
      {"measurement": "F (%) oral bioavailability", "setting": "[1]; PO (10 mg/kg) vs IV, 10 mg/kg", "result": 21.4, "unit": "%"},
      {"measurement": "reduced tumor size", "setting": "[2]", "result": "greater than 50%"}
    ]}
  ]
}
